{"source": "patent US7214535B2", "about": "“Glyphosate-tolerant 5-enolpyruvylshikimate-3-phosphate synthase and the gene encoding the same” (Peking University, priority 2002, dated 2007)", "test_system": "strain 4G-1", "test": "Growth of isolated strain 4G-1 on media comprising glyphosate or Ampicillin", "type": "cell-based, Pseudomonas putida", "procedure": "The sample were taken from neighborhood of a glyphosate producing factory in Hebei Province, China, and were diluted and spread on mediums comprising glyphosate. A total of 48 strains are isolated with high tolerance and degradation ability to glyphosate. One strain of them, 4G-1, is able to grow on a medium with 400 mM glyphosate, and is resistant to 100 mg/L Ampicillin. Said strain is selected for further studies.\nThe resulting products are purified by a purification method for PCR product, and are ligated to a T vector (Takara, Dalian) according to the instruction of manufacturer Takara to obtain plasmid pKU2000. […] Using BLAST software and BLASTP 2.2.2 [Dec. […] Thus, strain 4G-1 is thought to be P. putida, and is designated as P. putida 4G-1 (abbreviated as P. P4G-1). Said strain is deposited on Apr. 30, 2002 at the Chinese General Microbiological Culture Centre (CGMCC) (ZhongGuan Cun, Beijing, China) with the accession number CGMCC 0739."}
{"smiles": "CC1(C)S[C@@H]2[C@H](NC(=O)[C@H](N)c3ccccc3)C(=O)N2[C@H]1C(=O)O", "note": "[Ampicillin]", "values": [{"measurement": "resistance of strain 4G-1 to Ampicillin", "setting": "100 mg/L Ampicillin", "result": "resistant"}]}
{"smiles": "O=C(O)CNCP(=O)(O)O", "note": "[glyphosate, N-phosphylmethyl glycine]", "values": [{"measurement": "growth of strain 4G-1 on medium with glyphosate", "setting": "400 mM glyphosate", "result": "able to grow"}]}
